One compound from PMC5444695, “CM363, a novel naphthoquinone derivative which acts as multikinase modulator and overcomes imatinib resistance in chronic myelogenous leukemia” (Oncotarget, 2016) can be followed below.

For one data set, the system named is KBTI cells. The data set is described as follows: Viability of IM-resistant KBTI cells. The class given is cell-based. The settings on record: IM-resistant KBTI human cells, data not shown. On the procedure:
(§1) All cell lines were purchased from the American Type Culture Collection (ATCC). The cell lines were growth at 37°C under 5% CO2 under humidified atmosphere. The cell lines K562 (derived from patients during the blast crisis phase of CML and IM sensitive), K562-R (IM resistance human CML), KmycBT15I (KBTI; IM resistant human CML, expressing the Bcr-Abl […] mutant), HEL (human erythroleukemia), HL60 (human acute myeloid leukemia), MOLM-13 (human acute myeloid leukemia), MV4.11 (human acute monocytic leukemia), HCT-15 (human colorectal adenocarcinoma), PC3 (human prostate cancer), MCF7 (human breast cancer), NCTC3749 (mouse lymphoma) as well as the MRC.5 cells (non-malignant human lung fibroblasts) were maintained in RPMI-1640 medium. The cell lines L1210 (mouse lymphocytic leukemia cells), Raw (mouse macrophage), HeLa (human epithelial cervix cancer), U-2 OS (human osteosarcoma), MG63 (human osteosarcoma) and T47D (human breast cancer adenocarcinoma) were maintained in DMEM. HEK293 cells stably expressing the GH receptor (HEKGHR) were maintained in DMEM-F12 medium. […]
(§2) Cells were seeded in 96-well plates (BD Falcon, France) at exponential growth density (5000–20000 cells/well) and treated with vehicle (0.05% DMSO) or compound (0.01 to 10 μM) for 48–72 h. […] Optical density was measured at 595 nm with the iMark Microplate Reader (BioRad, CA, USA).

Data set [1] is described as follows: Body weight of xenografted mice. In kind it is in vivo. The settings on record: CM363 10 mg/kg i.p., 25 days. On the procedure: Six weeks old female athymic mice (NOD-SCID), were purchased from Charles River River (Barcelona, Spain), and were housed in a specifically designed pathogen-free isolation facility as reported previously. The mice were subcutaneously inoculated into the right flank with 2.5 × l0^6 K562 cells in 100 μL of RPMI-1640 medium and 100 μL of Matrigel. When tumors became palpable, mice were randomized into three groups (n = 8 per group); the control group (receiving vehicle alone- DMSO: PEG-400: sterile water at 5:25:70 (w/v)), the group receiving CM363 10 mg/Kg or the group receiving the positive control IM 40 mg/kg. The vehicle and CM363 treatments were administered via intraperitoneal injection (i.p.) every day except Saturday and Sunday. While IM was administered orally using the same schedule. The study was conducted over a 25 days period. Caliper measurements of the tumor diameters were performed twice per week, and the tumor volume was estimated as the volume of an ellipse using the following formula: V = 4/3n × (a/2) × (b/2)^2, where a and b correspond to the longest and shortest diameter, respectively. Mice were sacrificed when their tumor diameters reached 2 cm, or when they became moribund. Differences in tumor volumes between control and treated group were evaluated using the Mann-Whitney test.

The next data set concerns T47D cells. Briefly: MTT cell viability assay, T47D cells. In kind it is cell-based. The following applies: Homo sapiens, 48 h, read-out: IC50 (μM) Mean ± SD. On the procedure: as §1, §2
The test system of another data set is MV4.11 cells. The data set is described as follows: MTT cell viability assay, MV4.11 cells. The class given is cell-based. The following applies: Homo sapiens, MV4.11, 48 h, read-out: IC50 (μM) Mean ± SD. On the procedure: as §1, §2
The subject of the next data set is pTyr694-Stat5 (pYStat5). The data set is described as follows: Immunoblotting of constitutive pYStat5 in K562 cells. The class given is cell-based. The following applies: Homo sapiens; K562, 3 μM CM363, 3 h. On the procedure: Then, cells were rinsed with cold PBS-vanadate (1 mM) followed by preparation of whole lysis extract with RIPA (Pierce, Illinois, USA). Equal amounts of each sample were separated by SDS-PAGE and transfered onto nitrocellulose membranes. After being blocked with 1% BSA-1% Blotto (anti-phospho-antibodies) (Santa Cruz Biotechnology, CA, USA) or 5% blotto (anti-total-antibodies) (Santa Cruz Biotechnology, CA, USA) (both diluted in Tris buffered saline with 0.05% Tween 20), membranes were immunoblotted overnight at 4°C with dilution (1:1000) in the same buffer of blocking of primary phosphoprotein or total protein antibodies. […] To control for differences in loading and transfer efficiency across membranes, membranes were incubated with a monoclonal mouse anti-beta actin antibody (Santa Cruz Biotechnology, CA, USA). The phosphoprotein array analysis of K562 cells was carried out by using the Profiler Human Phospho-Kinase Array Kit ARY003B (R&D Systems, Minneapolis, MN, USA) according to the manufacturer`s instructions.

For another data set, the system named is MRC.5 cells. The data set is described as follows: MTT cell viability assay, MRC.5 cells. In kind it is cell-based. The settings on record: Homo sapiens, MRC5, MRC.5 non-malignant lung fibroblasts, 48 h, read-out: IC50 (μM) Mean ± SD. On the procedure: as §1, §2
The next data set relates to PMBC. The data set is described as follows: MTT cell viability assay, PMBC. The class given is cell-based. The following applies: Homo sapiens, 48 h, read-out: IC50 (μM) Mean ± SD. On the procedure: as §1, §2
In another data set the test system is NCTC cells. The data set is described as follows: MTT cell viability assay, NCTC cells. The settings on record: Mus musculus, 48 h, read-out: IC50 (μM) Mean ± SD. The class given is cell-based. On the procedure:
as §1, §2

A further data set concerns K562-R cells. Briefly: MTT cell viability assay, IM-resistant K562-R cells. The class given is cell-based, human. The following applies: 72 h, MTT (Fig 10D). On the procedure: All cell lines were purchased from the American Type Culture Collection (ATCC). The cell lines were growth at 37°C under 5% CO2 under humidified atmosphere. […] The cell lines L1210 (mouse lymphocytic leukemia cells), Raw (mouse macrophage), HeLa (human epithelial cervix cancer), U-2 OS (human osteosarcoma), MG63 (human osteosarcoma) and T47D (human breast cancer adenocarcinoma) were maintained in DMEM. HEK293 cells stably expressing the GH receptor (HEKGHR) were maintained in DMEM-F12 medium. The human breast cancer cell line SKBR3 was maintained in McCoy’s 5A medium. Cell culture medium was supplemented with 10% FBS, L-glutamine (2 mM) and PEST. In addition, the cell culture medium for T47D was supplemented with 1 mM NaPyr and 10 mM HEPES. Human peripheral blood mononuclear cells (PBMC) were isolated from heparin-anticoagulated blood of healthy volunteers by centrifugation with Ficoll-Paque Plus (Amersham Biosciences).
The mitochondrial metabolization of the tetrazolium salt 3-(4,5-methyltiazol-2yl-)-2,5diphenyl-tetrazolium bromide] (MTT) (Applichen, Germany) was used as indicator of cell viability. Optical density was measured at 595 nm with the iMark Microplate Reader (BioRad, CA, USA).

Turning to `N#Cc1ccc(C2C3=C(CCCC3=O)OC3=C2C(=O)c2ccccc2C3=O)cc1` (stereo not shown) [CM363, 4-(1,6,11-trioxo-2,3,4,6,11,12-hexahydro-1H-benzo[b]xanthen-12-yl)benzonitrile], the “sensitivity of KBTI cells” value in the data set on KBTI cells is “partial resistance”. Further, the body weight entry in [1] was “no significant body weight reduction”. The IC50 in the data set on T47D cells is 1.3 ± 1.2 µM; in the data set on MV4.11 cells it was 1.2 ± 1.1 µM; with MRC.5 cells it was 3.5 µM; in the data set on PMBC it was above 5 µM; with NCTC cells it was 1.1 ± 0.7 µM; with K562-R cells (Homo sapiens, K-562R), around 0.6 µM. In the data set with pTyr694-Stat5 (pYStat5), this compound came in with an inhibition at 3 µM of 20%. For the same compound, the “lowest concentration at which inhibition was detected” value in the data set on K562-R cells came out at 0.3 µM.
